Results: PubChem BioAssay AID248 (DTP/NCI, 2004)
Where “and” joins values, the source holds several entries; their conditions need not be identical. Identical values can stand only once. Inconclusive results and toxic doses are left out. Cut-off read from the data, not from the text of the source: active = T/C of 150% or more; inactive = T/C below 125%.

System: L1210 leukemia ip in BDF1 mice, survival T/C
Assay: NCI In Vivo Anticancer Drug Screen. Data for tumor model L1210 Leukemia (intraperitoneal) in B6D2F1 (BDF1) mice
Conditions: endpoint: mean survival time, higher = longer survival
Procedure, shortened: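 Each compound was tested against a transplantable tumor grown in mice. The endpoint was survival, with treated animals benchmarked against vehicle controls as a simple ratio.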

[1] = dose: 100.0 mg/kg/injection, schedule: Q01DX009 (ip), vehicle: saline with Tween-80
[2] = dose: 100.0 mg/kg/injection, schedule: Q04DX003 (ip), vehicle: saline with Tween-80
[3] = dose: 200.0 mg/kg/injection, schedule: Q01DX009 (ip), vehicle: saline with Tween-80
[4] = dose: 200.0 mg/kg/injection, schedule: Q04DX003 (ip), vehicle: saline with Tween-80
[5] = dose: 400.0 mg/kg/injection, schedule: Q01DX009 (ip), vehicle: saline with Tween-80
[6] = dose: 400.0 mg/kg/injection, schedule: Q04DX003 (ip), vehicle: saline with Tween-80
[7] = dose: 100.0 mg/kg/injection, schedule: Q04DX002 (ip), vehicle: saline
[8] = dose: 200.0 mg/kg/injection, schedule: Q04DX002 (ip), vehicle: saline
[9] = dose: 400.0 mg/kg/injection, schedule: Q04DX002 (ip), vehicle: saline
[10] = dose: 100.0 mg/kg/injection, schedule: Q01DX001 (ip), vehicle: saline
[11] = dose: 200.0 mg/kg/injection, schedule: Q01DX001 (ip), vehicle: saline
[12] = dose: 400.0 mg/kg/injection, schedule: Q01DX001 (ip), vehicle: saline
[13] = dose: 100.0 mg/kg/injection, schedule: Q04DX003 (ip), vehicle: saline
[14] = dose: 100.0 mg/kg/injection, schedule: Q04DX002 (ip), vehicle: saline with Tween-80
[15] = dose: 200.0 mg/kg/injection, schedule: Q04DX002 (ip), vehicle: saline with Tween-80
[16] = dose: 400.0 mg/kg/injection, schedule: Q04DX002 (ip), vehicle: saline with Tween-80

Measured: T/C

CC(=O)[C@H]1CC[C@H]2[C@@H]3C[C@H](C)C4=CC(=O)CC[C@]4(C)[C@H]3C(=O)C[C@]12C
inactive: dose: 20.0 mg/kg/injection, schedule: Q01DX009 (ip), vehicle: carboxymethylcellulose (CMC) 93 % of control | dose: 25.0 mg/kg/injection, schedule: Q01DX015 (sc), vehicle: steriod suspending solution 104 % of control | dose: 32.0 mg/kg/injection, schedule: Q03HX008 (ip), vehicle: Klucel (hydroxypropylcellulose) (HPC) 93 % of control | dose: 32.0 mg/kg/injection, schedule: Q03HX016 (ip), vehicle: Klucel (hydroxypropylcellulose) (HPC) 92 % of control | dose: 32.0 mg/kg/injection, schedule: Q03HX024 (ip), vehicle: Klucel (hydroxypropylcellulose) (HPC) 97 % of control | dose: 40.0 mg/kg/injection, schedule: Q01DX009 (ip), vehicle: carboxymethylcellulose (CMC) 96 % of control | dose: 50.0 mg/kg/injection, schedule: Q01DX015 (sc), vehicle: steriod suspending solution 96 % of control | dose: 64.0 mg/kg/injection, schedule: Q03HX008 (ip), vehicle: Klucel (hydroxypropylcellulose) (HPC) 92 % of control | dose: 64.0 mg/kg/injection, schedule: Q03HX016 (ip), vehicle: Klucel (hydroxypropylcellulose) (HPC) 94 % of control | dose: 64.0 mg/kg/injection, schedule: Q03HX024 (ip), vehicle: Klucel (hydroxypropylcellulose) (HPC) 93 % of control | dose: 67.0 mg/kg/injection, schedule: Q01DX Z (sc), vehicle: steriod suspending solution 103 % of control | dose: 80.0 mg/kg/injection, schedule: Q01DX Z (sc), vehicle: steriod suspending solution 106 % of control | dose: 100.0 mg/kg/injection, schedule: Q01DX015 (sc), vehicle: steriod suspending solution 98 % of control | dose: 100.0 mg/kg/injection, schedule: Q01DX Z (sc), vehicle: steriod suspending solution 109 % of control | dose: 120.0 mg/kg/injection, schedule: Q01DX Z (sc), vehicle: steriod suspending solution 101 % of control | dose: 123.0 mg/kg/injection, schedule: Q01DX009 (ip), vehicle: Klucel (hydroxypropylcellulose) (HPC) 100 % of control | dose: 123.0 mg/kg/injection, schedule: Q03HX008 (ip), vehicle: Klucel (hydroxypropylcellulose) (HPC) 95 % of control | dose: 123.0 mg/kg/injection, schedule: Q03HX016 (ip), vehicle: Klucel (hydroxypropylcellulose) (HPC) 93 % of control | dose: 123.0 mg/kg/injection, schedule: Q03HX024 (ip), vehicle: Klucel (hydroxypropylcellulose) (HPC) 98 % of control | dose: 150.0 mg/kg/injection, schedule: Q01DX Z (sc), vehicle: steriod suspending solution 106 % of control | dose: 160.0 mg/kg/injection, schedule: Q01DX009 (ip), vehicle: carboxymethylcellulose (CMC) 93 % of control | dose: 180.0 mg/kg/injection, schedule: Q01DX Z (sc), vehicle: steriod suspending solution 97 % of control | dose: 200.0 mg/kg/injection, schedule: Q01DX015 (sc), vehicle: steriod suspending solution 102 % of control and 104 % of control | dose: 220.0 mg/kg/injection, schedule: Q01DX Z (sc), vehicle: steriod suspending solution 97 % of control | dose: 255.0 mg/kg/injection, schedule: Q01DX001 (ip), vehicle: Klucel (hydroxypropylcellulose) (HPC) 96 % of control | dose: 255.0 mg/kg/injection, schedule: Q01DX009 (ip), vehicle: Klucel (hydroxypropylcellulose) (HPC) 103 % of control | dose: 255.0 mg/kg/injection, schedule: Q04DX003 (ip), vehicle: Klucel (hydroxypropylcellulose) (HPC) 97 % of control | dose: 255.0 mg/kg/injection, schedule: Q08DX002 (ip), vehicle: Klucel (hydroxypropylcellulose) (HPC) 104 % of control | dose: 270.0 mg/kg/injection, schedule: Q01DX Z (sc), vehicle: steriod suspending solution 89 % of control | dose: 320.0 mg/kg/injection, schedule: Q01DX009 (ip), vehicle: carboxymethylcellulose (CMC) 87 % of control | dose: 330.0 mg/kg/injection, schedule: Q01DX Z (sc), vehicle: steriod suspending solution 100 % of control | dose: 400.0 mg/kg/injection, schedule: Q01DX015 (sc), vehicle: steriod suspending solution 102 % of control | dose: 495.0 mg/kg/injection, schedule: Q01DX Z (sc), vehicle: steriod suspending solution 94 % of control | dose: 512.0 mg/kg/injection, schedule: Q08DX002 (ip), vehicle: Klucel (hydroxypropylcellulose) (HPC) 103 % of control | dose: 640.0 mg/kg/injection, schedule: Q01DX009 (ip), vehicle: carboxymethylcellulose (CMC) 92 % of control

OC(CC(O)(c1ccccc1)c1ccccc1)(c1ccccc1)c1ccccc1
inactive: dose: 9.5 mg/kg/injection, schedule: Q01DX001 (ip), vehicle: other 93 % of control | dose: 19.0 mg/kg/injection, schedule: Q01DX001 (ip), vehicle: other 96 % of control | dose: 38.0 mg/kg/injection, schedule: Q01DX001 (ip), vehicle: other 93 % of control

O=[N+]([O-])c1ccccc1/C=C/C=N/N=C/c1ccccc1O
inactive: dose: 75.0 mg/kg/injection, schedule: Q01DX001 (ip), vehicle: other 94 % of control | dose: 150.0 mg/kg/injection, schedule: Q01DX001 (ip), vehicle: other 95 % of control | dose: 300.0 mg/kg/injection, schedule: Q01DX001 (ip), vehicle: other 88 % of control

CC1(C)N=C(N)N=C(N)N1c1cccc(OCCOc2cccc(NC(=O)CBr)c2)c1
inactive: dose: 5.0 mg/kg/injection, schedule: Q01DX001 (ip), vehicle: saline 98 % of control | dose: 10.0 mg/kg/injection, schedule: Q01DX001 (ip), vehicle: saline 102 % of control | dose: 10.0 mg/kg/injection, schedule: Q01DX009 (ip), vehicle: other 105 % of control | dose: 20.0 mg/kg/injection, schedule: Q01DX001 (ip), vehicle: saline 93 % of control | dose: 20.0 mg/kg/injection, schedule: Q01DX009 (ip), vehicle: other 98 % of control | dose: 40.0 mg/kg/injection, schedule: Q01DX001 (ip), vehicle: saline 96 % of control

CCOC(=O)/C(Cc1cnc2ccccc2n1)=N\O
inactive: [1] 94 % of control | [2] 105 % of control | [3] 96 % of control | [4] 100 % of control | [5] 100 % of control | [6] 105 % of control

CCCCSC(C)=N
inactive: [7] 97 % of control | [8] 105 % of control | [9] 97 % of control

CP1(=O)CCC=C1C(=O)O (configuration not stated)
inactive: [10] 95 % of control | [11] 95 % of control | [12] 95 % of control

OCC(O)C(O)C(O)C(O)C(c1ccc(F)cc1)c1ccc(F)cc1 (configuration not stated)
inactive: dose: 50.0 mg/kg/injection, schedule: Q01DX001 (ip), vehicle: saline 98 % of control | [10] 106 % of control and 102 % of control | [11] 101 % of control | [12] 93 % of control

CN(C)P1(=O)OCC(C(C)(C)C)CO1 (configuration not stated)
inactive: [13] 112 % of control

CSC(N)=NC#N
inactive: dose: 100.0 mg/kg/injection, schedule: Q04DX002 (ip), vehicle: other 111 % of control | dose: 200.0 mg/kg/injection, schedule: Q04DX002 (ip), vehicle: other 93 % of control | dose: 400.0 mg/kg/injection, schedule: Q04DX002 (ip), vehicle: other 107 % of control

O=S(=O)(O)N(O)S(=O)(=O)O
inactive: [7] 97 % of control | [13] 97 % of control | [8] 97 % of control | dose: 200.0 mg/kg/injection, schedule: Q04DX003 (ip), vehicle: saline 90 % of control | [9] 102 % of control

CC(=O)C1(Cl)CCC(C(C)(C)C)CC1 (configuration not stated)
inactive: [14] 111 % of control | [15] 103 % of control | [16] 103 % of control

COc1ccc([N+](=O)[O-])c2c1CONC2c1c(CO)cnc(C)c1O (configuration not stated)
inactive: dose: 100.0 mg/kg/injection, schedule: Q04DX003 (ip), vehicle: acetone 90 % of control | dose: 200.0 mg/kg/injection, schedule: Q04DX003 (ip), vehicle: acetone 96 % of control | dose: 400.0 mg/kg/injection, schedule: Q04DX003 (ip), vehicle: acetone 89 % of control

CCOC(=O)c1ccc(NC(=O)Oc2ccccc2C(C)C)cc1
inactive: [1] 97 % of control and 107 % of control | [14] 101 % of control | [2] 97 % of control | [3] 93 % of control and 97 % of control | [15] 92 % of control | [4] 93 % of control | [5] 89 % of control | [16] 92 % of control | [6] 102 % of control
